Results published in patent publication US20150141381A1, “TETRACYCLINE COMPOUNDS HAVING TARGET THERAPEUTIC ACTIVITIES” (Paratek Pharmaceuticals, Inc., priority 2001, published 2015).
Like-named read-outs stand apart in the source and are kept apart here.

Legend:
S. aureus RN450 = assay: In Vitro Anti-Bacterial Activity Assay (MIC), gram positive; assay type: cell-based; details: Staphylococcus aureus, RN450, 18 h
E. coli mL308 225 = assay: In Vitro Anti-Bacterial Activity Assay (MIC), gram negative; assay type: cell-based; details: for MIC: Escherichia coli, ML308225, 18 h
[1] = MIC class, Table 3, read-out: Antibiotic Activity Gram +
[2] = MIC class, Table 3, read-out: Antibiotic Activity Gram −
[3] = MIC class, Table 3 (Continued), read-out: Gram+ activity
[4] = MIC class, Table 3 (Continued), read-out: Gram− activity
[5] = read-out: Antibiotic Activity Gram +
[6] = read-out: Antibiotic Activity Gram −
[7] = gram positive bacteria, read-out: Antibiotic Activity Gram + (MIC)
[8] = gram negative bacteria, read-out: Antibiotic Activity Gram − (MIC)

Row | Structure (SMILES) | MIC (S. aureus RN450; [1]) [µg/mL] | MIC (E. coli mL308 225; [2]) [µg/mL] | MIC (S. aureus RN450; [7]) [µg/mL] | MIC (E. coli mL308 225; [8]) [µg/mL] | further results
1 | CN(C)c1ccc(OCc2ccccc2)c2c1C[C@H]1C[C@H]3[C@H](N(C)C)C(OCc4ccccc4)=C(C(N)=O)C(=O)[C@@]3(O)C(O)=C1C2=O [ON] | > 4 | > 4 | – | – | –
2 | CN(C)[C@@H]1C(O)=C(C(N)=O)C(=O)[C@@]2(O)C(O)=C3C(=O)c4c(O)ccc(C#CC(=O)O)c4C[C@H]3C[C@@H]12 [BH] | > 4 | > 4 | – | – | –
3 | CN(C)[C@@H]1C(O)=C(C(N)=O)C(=O)[C@@]2(O)C(O)=C3C(=O)c4c(O)ccc(-c5ccc(Cl)o5)c4C[C@H]3C[C@@H]12 | – | – | – | – | MIC (S. aureus RN450; [3]): < 4 µg/mL; MIC (E. coli mL308 225; [4]): < 4 µg/mL
4 | C[C@H]1c2ccc(NC(=O)Oc3ccc(F)cc3)c(O)c2C(=O)C2=C(O)[C@]3(O)C(=O)C(C(N)=O)=C(O)[C@@H](N(C)C)[C@@H]3[C@@H](O)[C@@H]21 [V] | – | – | – | – | MIC (S. aureus RN450; [5]): > 4 µg/mL; MIC (E. coli mL308 225; [6]): > 4 µg/mL
5 | CC1OC(=O)NC1COC(=O)N(Cc1cc(N(C)C)c2c(c1O)C(=O)C1=C(O)[C@]3(O)C(=O)C(C(N)=O)=C(O)[C@@H](N(C)C)[C@@H]3C[C@@H]1C2)CC(C)(C)C (stereo partly shown) | – | – | < 4 | > 4 | –
6 | CN(C)[C@@H]1C(O)=C(C(N)=O)C(=O)[C@@]2(O)C(O)=C3C(=O)c4c(O)ccc(-c5ccc(C(C)(C)C)cc5)c4C[C@H]3C[C@@H]12 [drawing 3327] | – | – | – | – | MIC (S. aureus RN450; [3]): < 4 µg/mL; Gram− activity (E. coli mL308 225; number printed instead of class symbol, Table 3 (Continued)): 1.5
7 | CC(=O)c1ccc(NC(=O)NCc2cc(N(C)C)c3c(c2O)C(=O)C2=C(O)[C@]4(O)C(=O)C(C(N)=O)=C(O)[C@@H](N(C)C)[C@@H]4C[C@@H]2C3)cc1 [FL] | < 4 | > 4 | – | – | –
8 | C[C@H]1c2ccc(CNCCc3ccccc3)c(O)c2C(=O)C2=C(O)[C@]3(O)C(=O)C(C(N)=O)=C(O)[C@@H](N(C)C)[C@@H]3[C@@H](O)[C@@H]21 [JI] | < 4 | < 4 | – | – | –
9 | CN(C)[C@@H]1C(O)=C(C(N)=O)C(=O)[C@@]2(O)C(O)=C3C(=O)c4c(O)ccc(-c5cc(F)cc(F)c5)c4C[C@H]3C[C@@H]12 | – | – | < 4 | < 4 | –
10 | CN(C)CC(=O)Nc1ccc(C#Cc2ccc(O)c3c2C[C@H]2C[C@H]4[C@H](N(C)C)C(O)=C(C(N)=O)C(=O)[C@@]4(O)C(O)=C2C3=O)cc1 [BM] | < 4 | < 4 | – | – | –
11 | COc1ccc(OC(=O)Nc2cc(N(C)C)c3c(c2O)C(=O)C2=C(O)[C@]4(O)C(=O)C(C(N)=O)=C(O)[C@H](N(C)C)[C@@H]4C[C@@H]2C3)cc1 [DV] | – | – | – | – | MIC (S. aureus RN450; [5]): > 4 µg/mL; MIC (E. coli mL308 225; [6]): > 4 µg/mL
12 | COc1ccc(-c2ccc(O)c3c2C[C@H]2C[C@H]4[C@H](N(C)C)C(O)=C(C(N)=O)C(=O)[C@@]4(O)C(O)=C2C3=O)cc1CN(C)C [IT] | < 4 | < 4 | – | – | –
13 | CN(C)[C@@H]1C(O)=C(C(N)=O)C(=O)[C@@]2(O)C(O)=C3C(=O)c4c(O)c(C(C)(C)C)cc(-c5ccc6c(c5)OCO6)c4C[C@H]3C[C@@H]12 | – | – | > 4 | > 4 | –
14 | CN(C)[C@@H]1C(O)=C(C(N)=O)C(=O)[C@@]2(O)C(O)=C3C(=O)c4c(O)ccc(-n5cccn5)c4C[C@H]3C[C@@H]12 | – | – | < 4 | < 4 | –
15 | CN(C)c1cc(CNCC(C)(C)C)c(O)c2c1C[C@H]1C[C@H]3[C@H](N(C)C)C(O)=C(C(N)=O)C(=O)[C@@]3(O)C(O)=C1C2=O [drawing 3433] | – | – | < 4 | > 4 | –
16 | C[C@H]1c2ccc(CNCC(C)(C)C)c(O)c2C(=O)C2=C(O)[C@]3(O)C(=O)C(C(N)=O)=C(O)[C@@H](N(C)C)[C@@H]3[C@@H](O)[C@@H]21 [drawing 3661] | – | – | > 4 | > 4 | –
17 | C[C@H]1c2ccc(-c3ccc(C=O)cc3)c(O)c2C(=O)C2=C(O)[C@]3(O)C(=O)C(C(N)=O)=C(O)[C@@H](N(C)C)[C@@H]3[C@@H](O)[C@@H]21 | – | – | < 4 | < 4 | –
18 | CN(C)[C@@H]1C(O)=C(C(N)=O)C(=O)[C@@]2(O)C(O)=C3C(=O)c4c(O)ccc(-c5ccc(NC(=O)c6ccco6)cc5)c4C[C@H]3C[C@@H]12 | – | – | < 4 | > 4 | –
19 | CN(C)c1cc(NC(=O)Nc2ccccc2)c(O)c2c1C[C@H]1C[C@H]3C(N(C)C)C(O)=C(C(N)=O)C(=O)[C@@]3(O)C(O)=C1C2=O (stereo partly shown) | – | – | – | – | MIC (S. aureus RN450; [3]): < 4 µg/mL; MIC (E. coli mL308 225; [4]): < 4 µg/mL
20 | COc1ccc(CNCCN(C)C)cc1-c1ccc(O)c2c1C[C@H]1C[C@H]3[C@H](N(C)C)C(O)=C(C(N)=O)C(=O)[C@@]3(O)C(O)=C1C2=O [GA] | < 4 | > 4 | – | – | –
21 | CC(C)NCc1ccc(-c2ccc(O)c3c2C[C@H]2C[C@H]4[C@@H](N(C)C)C(O)=C(C(N)=O)C(=O)[C@@]4(O)C(O)=C2C3=O)o1 [HN] | < 4 | < 4 | – | – | –
22 | CN(C)c1cc(NCc2ccccc2C[C@H]2O[C@@H](CO)[C@@H](O)[C@@H](O)[C@H]2O)c(O)c2c1C[C@H]1C[C@H]3[C@H](N(C)C)C(O)=C(C(N)=O)C(=O)[C@@]3(O)C(O)=C1C2=O | – | – | > 4 | > 4 | –

Row | Structure (SMILES) | MIC (S. aureus RN450; [1]) [µg/mL] | MIC (E. coli mL308 225; [2]) [µg/mL] | MIC (S. aureus RN450; [7]) [µg/mL] | MIC (E. coli mL308 225; [8]) [µg/mL] | further results
23 | Cc1ccc(-c2ccc(O)c3c2C[C@H]2C[C@H]4[C@H](N(C)C)C(O)=C(C(N)=O)C(=O)[C@@]4(O)C(O)=C2C3=O)cc1 | – | – | – | – | MIC (S. aureus RN450; [3]): < 4 µg/mL; MIC (E. coli mL308 225; [4]): < 4 µg/mL
24 | CN(C)Cc1ccc(-c2cc(N(C)C)c3c(c2O)C(=O)C2=C(O)[C@]4(O)C(=O)C(C(N)=O)=C(O)[C@@H](N(C)C)[C@@H]4C[C@@H]2C3)o1 [LI] | < 4 | > 4 | – | – | –
25 | CN(C)c1cc(CNc2nc(C(F)(F)F)co2)c(O)c2c1C[C@H]1C[C@H]3[C@H](N(C)C)C(O)=C(C(N)=O)C(=O)[C@@]3(O)C(O)=C1C2=O | – | – | < 4 | < 4 | –
26 | COc1ccc(OC)c(-c2ccc(O)c3c2C[C@H]2C[C@H]4[C@H](N(C)C)C(O)=C(C(N)=O)C(=O)[C@@]4(O)C(O)=C2C3=O)c1 | – | – | – | – | MIC (S. aureus RN450; [3]): < 4 µg/mL; MIC (E. coli mL308 225; [4]): < 4 µg/mL
27 | CN(C)[C@@H]1C(O)=C(C(N)=O)C(=O)[C@@]2(O)C(O)=C3C(=O)c4c(O)ccc(-c5ccoc5)c4C[C@H]3C[C@@H]12 [drawing 3287] | – | – | – | – | MIC (S. aureus RN450; [3]): < 4 µg/mL; MIC (E. coli mL308 225; [4]): < 4 µg/mL
28 | CN(C)c1cc(-c2ccccn2)c2c(c1O)C(=O)C1=C(O)[C@]3(O)C(=O)C(C(N)=O)=C(O)[C@@H](N(C)C)[C@@H]3C[C@@H]1C2 | – | – | < 4 | > 4 | –
29 | CN(C)[C@H]1C(O)=C(C(N)=O)C(=O)[C@@]2(O)C(O)=C3C(=O)c4c(O)ccc(-c5ccc(NC(=O)C6CC6)cc5)c4C[C@H]3C[C@@H]12 [GQ] | < 4 | > 4 | – | – | –
30 | CN(C)c1cc(CNC(=O)Nc2ccc3c(c2)OCO3)c(O)c2c1C[C@H]1C[C@H]3[C@H](N(C)C)C(O)=C(C(N)=O)C(=O)[C@@]3(O)C(O)=C1C2=O | – | – | < 4 | > 4 | –
31 | CN(C)c1cc(-c2cccc(N)c2)c(O)c2c1C[C@H]1C[C@H]3[C@H](N(C)C)C(O)=C(C(N)=O)C(=O)[C@@]3(O)C(O)=C1C2=O [AH] | < 4 | > 4 | – | – | –
32 | C#Cc1cc(CNC(=O)N2CCOCC2)c2c(c1O)C(=O)C1=C(O)[C@]3(O)C(=O)C(C(N)=O)=C(O)[C@@H](N(C)C)[C@@H]3C[C@@H]1C2 | – | – | > 4 | > 4 | –
33 | CCCCCc1cc(N(C)C)c2c(c1O)C(=O)C1=C(O)[C@]3(O)C(=O)C(C(N)=O)=C(O)[C@@H](N(C)C)[C@@H]3C[C@@H]1C2 [DX] | < 4 | > 4 | – | – | –
34 | COC(=O)/C=C/c1ccc(O)c2c1C[C@H]1C[C@H]3[C@H](N(C)C)C(O)=C(C(N)=O)C(=O)[C@@]3(O)C(O)=C1C2=O [NJ] | < 4 | > 4 | – | – | –
35 | CN(C)c1cc(CNCc2cc[n+]([O-])cc2)c(O)c2c1C[C@H]1C[C@H]3[C@H](N(C)C)C(O)=C(C(N)=O)C(=O)[C@@]3(O)C(O)=C1C2=O | – | – | > 4 | > 4 | –
36 | CN(C)[C@@H]1C(O)=C(C(N)=O)C(=O)[C@@]2(O)C(O)=C3C(=O)c4c(ccc(NC(=O)Nc5cccc6ccccc56)c4O)C[C@H]3C[C@@H]12 [AU] | < 4 | > 4 | – | – | –
37 | COC(=O)C#Cc1cc(N(C)C)c2c(c1O)C(=O)C1=C(O)[C@]3(O)C(=O)C(C(N)=O)=C(O)C(N(C)C)[C@@H]3C[C@@H]1C2 (stereo partly shown) [CY] | < 4 | > 4 | – | – | –
38 | C[C@H]1c2ccc(N3CCOCC3)c(O)c2C(=O)C2=C(O)[C@]3(O)C(=O)C(C(N)=O)=C(O)[C@@H](N(C)C)[C@@H]3[C@@H](O)[C@@H]21 | – | – | > 4 | > 4 | –
39 | CN(C)CC(=O)NCc1ccc(-c2ccc(O)c3c2C[C@H]2C[C@H]4[C@H](N(C)C)C(O)=C(C(N)=O)C(=O)[C@@]4(O)C(O)=C2C3=O)cc1 | – | – | < 4 | > 4 | –
40 | Cc1ccc(-c2ccc(O)c3c2C[C@H]2C[C@H]4[C@H](N(C)C)C(O)=C(C(N)=O)C(=O)[C@@]4(O)C(O)=C2C3=O)nc1 | – | – | < 4 | < 4 | –
41 | CN(C)[C@@H]1C(O)=C(C(N)=O)C(=O)[C@@]2(O)C(O)=C3C(=O)c4c(O)ccc(CNCc5ccc(F)cc5)c4C[C@H]3C[C@@H]12 | – | – | < 4 | < 4 | –
42 | CC(C)CNCc1ccc2c(c1O)C(=O)C1=C(O)[C@]3(O)C(=O)C(C(N)=O)=C(O)[C@@H](N(C)C)[C@@H]3[C@@H](O)[C@@H]1[C@H]2C [JH] | < 4 | < 4 | – | – | –
43 | CN(C)c1cc(NCc2ccc([N+](=O)[O-])o2)c(O)c2c1C[C@H]1C[C@H]3[C@H](N(C)C)C(O)=C(C(N)=O)C(=O)[C@@]3(O)C(O)=C1C2=O | – | – | < 4 | > 4 | –
44 | Cc1ccc(O)c2c1C[C@H]1C[C@H]3[C@H](N(C)C)C(O)=C(C(N)=O)C(=O)[C@@]3(O)C(O)=C1C2=O | – | – | < 4 | < 4 | –
